We go through eight compounds from patent publication US20210381022A1, “INTEGRATED DRUG DISCOVERY PLATFORM FOR INBORN ERROR OF METABOLISM DISORDERS” (RAMOT AT TEL-AVIV UNIVERSITY LTD., priority 2018, published 2021).

The subject of one series is fah-1 RNAi treated worms. Kind of series: C. elegans model for Tyrosinemia (fah-1 RNAi). It counts as in vivo, Caenorhabditis elegans. The note with it: tyrosine added to fah-1 silenced worms. As to the method:
(§1) Wild-type N2, RB857 and NL2099 worms were obtained from the Caenorhabditis Genetics Center. RNAi clones was obtained from the Ahringer RNAi library as previously described [Fisher A L, et al., J. Biol. Chem. 283: 9127-9135(2008)]. Worms were grown on NGM media without peptone and the metabolites were added into a boiling media. Baicalein and EGCG were added to a media after cooled down to 45 degrees.
Mutations in different enzymes that are involved in the tyrosine degradation pathway are responsible for different types of Tyrosinemia. The tyrosine degradation pathway in mammals and C. elegans in conserved and the most severe is type I Tyrosinemia, which is caused by mutations affecting the last enzyme in the pathway, fumarylacetoacetate hydrolase (FAH). To study Tyrosinemia in C. elegans model, an RNAi was used that specifically silences the fumarylacetoacetate hydrolase (fah-1), as was previously reported (K10C4.2). RNAi directed against fah-1 causes severe phenotype of reduced size, impaired fertility and reduction of total number of viable worms (FIG. 32).

In the next series the test system is aro3Δ mutant. Kind of series: Yeast growth assay of aro3Δ mutant with tyrosine feeding. It counts as cell-based, Saccharomyces cerevisiae. To be noted: 4a.a SD medium with tyrosine. The protocol:
(§2) Strains were grown over night at 30° C. in SD medium without adenine. For spotting assays, strains were diluted to 6.25*10^7 cells/mL and were then 5-fold serially diluted and spotted on SD media with the indicated concentrations of adenine or TA (Sigma-Aldrich). Plates were incubated at 30° C. for 2 days. […] For OD600 measurements, strains were diluted to OD600 0.01, 200 μL of cells were platted on 96 wells plates and incubated at 30° C. for 25 hours with continuous shaking. OD600 was measured using Tecan™ SPARK 10M plate reader.
The focus was put on a strain with a deletion of the ARO3 gene in which a significant decrease in cellular growth was observed upon tyrosine feeding (see FIG. 21). The inventors aimed to determine whether the toxic effect was influenced by different levels of tyrosine. Thus, the cellular growth of wild-type and the aro3Δ mutant was examined by serial dilutions on selective plates that were supplemented with different concentrations of tyrosine (FIG. 21A). In addition, cellular growth was also examined by measuring the turbidity of the medium upon addition of the indicated concentration of tyrosine (FIG. 21B). […] Thus, cell growth is affected by tyrosine levels in a dose-dependent manner which further supports the notion that the toxicity in the aro3Δ mutant results from the presence of tyrosine.
In order to examine the effect of EGCG on cell growth, the aro3Δ mutant was spotted on 4a.a SD plates that contained tyrosine alone or tyrosine with different concentrations of EGCG. […] Thus, the lag phase in the presence of EGCG was nearly the same as cells unexposed to tyrosine, indicating the potent ability of EGCG to eliminate the tyrosine sensitivity of the aro3Δ mutant. […] Next, the inventors aimed to gain additional insights into the effect of EGCG on the amyloid-like fibrils formed by the accumulation of tyrosine in the aro3Δ mutant cells. For that purpose, cells were stained with the amyloid-specific dye ProteoStat®, and FACS was applied to detect tyrosine aggregates. […] (FIG. 25).

A further series deals with aah1Δapt1Δ strain. Kind of series: Yeast growth assay of adenine salvage mutant with adenine feeding. It counts as cell-based, Saccharomyces cerevisiae. The protocol: as §2
For the percentage of growth analysis (FIG. 10B and FIG. 13A), OD600 was measured when cells reached log phase. The percentage of growth represents the growth with TA compared to the growth without TA.

The next series concerns phenylalanine assemblies. To be noted: reference [4]; cited from earlier work.
Series [1] has as its system adenosine aggregates in ADA deficient LCLs. Kind of series: Aggregation assay (Proteostat, FACS) on ADA deficient LCLs. It counts as cell-based, human. The note with it: patient derived lymphoblastoids, adenosine, 19 concentrations from 50 μM to 0.003 μM. The protocol:
24 hours after seeding in full medium cells were washed with medium without serum and placed in medium without serum. Following 72 hours of incubation with or without Adenosine (A9251 SIGMA) (200 ug/ml), cells were washed with PBS and stained for adenosine aggregates with Proteostat dye (ENZ-51023-KP002). Proteostat concentration was 1:3000 of diluted stock. Following 15 minutes' incubation, cells were washed with PBS and mean fluorescence was measured with FACS.
Cells were treated with adenosine alone or with adenosine with compounds. Compound activity was tested in 19 concentrations in range from 50 uM to 0.003 uM.
Readouts: Proteostat Fluorescence intensity was measured with FACS at 2 excitation wavelengths: 488 nm and 550 nm. Emission wavelength was 600 nm.
24 hours after seeding in 96 round bottom plates in full medium cells were washed once with medium without serum and placed in medium without serum. Following 72 hours of incubation with or without Adenosine (200 ug/ml) and with or without purpurin (2 uM), cells were washed once with PBS and stained for adenosine aggregates with Proteostat dye (Enzo Life Sciences). Proteostat concentration was 1:4000 of diluted stock. Following 15 minutes incubation, cells were washed with PBS and mean flow cytometry was preformed using Stratedigm S1000EXi and the CellCapTure software (Stratedigm, San Jose, Calif.). Analyses were performed using FlowJo software (TreeStar, version 10).
For quantification of intracellular adenosine aggregates by FACS analyses, 100,000 cells were seeded in 96 well plates in full medium. After 24 hours, cells were centrifuged, washed once and added with serum free medium with or without Adenosine (200 μg/ml). After incubation of 72 hours cells were washed with PBS and stained for adenosine aggregates with Proteostat dye. Following 15 minutes incubation, cells were washed with PBS and mean fluorescence was measured with FACS. Mean cell fluorescence of every cell line was normalized to its signal without adenosine and data is presented as percentage of aggregates.

Another series has as its system adenine fibrils. Kind of series: ThT assay of adenine self-assembly inhibition in vitro. The note with it: for amyloids staining (ThT, end point): adenine 8 mg/ml in PBS with inhibitor. The protocol:
Adenine was dissolved at 90° C. in PBS to a final concentration of 8 mg/ml and mixed with the indicated inhibitor, at the indicated concentrations, or with PBS as a control, followed by addition of ThT in PBS. ThT emission data at 480 nm (excitation at 450 nm) were measured at the end point.
Adenine was dissolved to a final concentration of 8 mg/ml at 90° C. in PBS. The solution was plated on a 96-well black plate and mixed with the inhibitor baicalein at the stated concentration, and with 20 μm ThT (final concentration). Fluorescence (excitation at 450 nm, emission at 480 nm) was recorded over time using a Tecan™ Infinite® 200 PRO plate reader. Data processing was performed using the OriginLab software.
To further examine if the compounds specifically target the adenosine amyloid-like structures. the compounds were tested using adenine in-vitro aggregation assay. Adenine was self-assembled with and without the inhibitors and stained with the amyloids dye, Thioflavin T (ThT). […] More specifically. Adenosine (30 mg/mL) and guanosine (3 mg/ml) were dissolved in PBS at 90° C., followed by the addition of ThT at final concentration of 20 μM. ThT emission data at 480 nm (excitation at 450 nm) was measured over time. TEM images show elongated adenosine fibrils (10 mg/mL) and guanosine fibrils (1 mg/mL) (FIGS. 34A and 34B, respectively). ThT fluorescence assay of adenosine and guanosine assemblies, are shown by FIGS. 34C, and 34D respectively.

The subject of the next series is GABAA receptor. To be noted: general description; cited from earlier work.
For series [2], the system named is RB857 (PAH-1 mutant) and N2 (WT) worms. Kind of series: C. elegans model for PKU. It counts as in vivo, Caenorhabditis elegans. The note with it: 100 mM phenylalanine in minimal media, Baicalein added. As to the method:
as §1
To study PKU in C. elegans model, a strain was used with mutation in the PAH-1 gene (RB857)]. […] Next, the effect of one of the previously identified hits i.e. baicalein was examined on the development of worms. The life cycle of C. elegans is comprised of the embryonic stage, four larval stages (L1-L4) and adulthood. The end of each larval stage is marked with a molt, during which a new, stage-specific cuticle is synthesized and the old one is shed.

For a further series, the target named is estrogen receptor (Homo sapiens, UniProt P03372). The note with it: general description; cited from earlier work.
Another series concerns lipoxygenases. The note with it: general description; cited from earlier work.
The target of the next series is CYP2C9 (Homo sapiens, UniProt P11712). The note with it: general description; cited from earlier work.
Another series has as its system cys4Δ strain. Kind of series: Yeast growth assay of cys4Δ mutant with homocysteine. It counts as cell-based, Saccharomyces cerevisiae. To be noted: compared to the wild-type strain, 20, 40, 80 mg/L. The protocol:
FIG. 27E: WT and cys4Δ strains diluted to OD600 0.01 were grown in SD media containing 13 mg/L cysteine and 80 mg/L homocysteine in the under the indicated conditions. 0.3 mM TA was added to the samples at different OD600. The percentage of growth represents the growth the indicated condition compared to the growth of WT without TA. *P<0.05 (Student's t-test).
Homocystinuria results from cystathionine beta synthase (CBS) deficiency, leading to excess of Hcy. A knockout mutation in CYS4, the highly-conserved functional yeast ortholog of the human cystathionine beta synthase (CBS) known to be essential for Hcy salvage, was therefore generated. Due to the contribution of this enzyme to cysteine biosynthesis, it was first shown that its absence confers cysteine dependence (FIG. 27A). […] To examine whether the observed toxicity was associated with the in vivo formation of amyloid-like assemblies, the cells were stained with the amyloid-specific fluorescent dye ProteoStat which allows to detect intracellular amyloid fibrils. […] Next, to further establish the amyloid-like nature of the aggregates, the fibrillation-modifying polyphenolic compound tannic acid (TA) was used (FIG. 27E).

Sequence of CYP2C9 (P11712 whole entry): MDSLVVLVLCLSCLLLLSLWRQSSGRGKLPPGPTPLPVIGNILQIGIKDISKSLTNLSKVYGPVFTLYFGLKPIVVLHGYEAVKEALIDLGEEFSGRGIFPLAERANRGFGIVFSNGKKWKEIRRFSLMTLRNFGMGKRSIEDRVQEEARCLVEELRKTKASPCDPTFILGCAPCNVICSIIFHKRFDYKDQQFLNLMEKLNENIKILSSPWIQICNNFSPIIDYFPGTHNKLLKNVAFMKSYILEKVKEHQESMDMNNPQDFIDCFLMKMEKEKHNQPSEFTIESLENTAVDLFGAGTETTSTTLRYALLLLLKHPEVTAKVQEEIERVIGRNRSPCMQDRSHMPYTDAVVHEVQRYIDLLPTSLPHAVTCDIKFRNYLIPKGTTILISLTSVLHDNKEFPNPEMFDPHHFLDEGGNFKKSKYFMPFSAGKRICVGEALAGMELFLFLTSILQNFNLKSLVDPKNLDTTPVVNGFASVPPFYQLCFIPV
Sequence of estrogen receptor (P03372 whole entry, species assumed): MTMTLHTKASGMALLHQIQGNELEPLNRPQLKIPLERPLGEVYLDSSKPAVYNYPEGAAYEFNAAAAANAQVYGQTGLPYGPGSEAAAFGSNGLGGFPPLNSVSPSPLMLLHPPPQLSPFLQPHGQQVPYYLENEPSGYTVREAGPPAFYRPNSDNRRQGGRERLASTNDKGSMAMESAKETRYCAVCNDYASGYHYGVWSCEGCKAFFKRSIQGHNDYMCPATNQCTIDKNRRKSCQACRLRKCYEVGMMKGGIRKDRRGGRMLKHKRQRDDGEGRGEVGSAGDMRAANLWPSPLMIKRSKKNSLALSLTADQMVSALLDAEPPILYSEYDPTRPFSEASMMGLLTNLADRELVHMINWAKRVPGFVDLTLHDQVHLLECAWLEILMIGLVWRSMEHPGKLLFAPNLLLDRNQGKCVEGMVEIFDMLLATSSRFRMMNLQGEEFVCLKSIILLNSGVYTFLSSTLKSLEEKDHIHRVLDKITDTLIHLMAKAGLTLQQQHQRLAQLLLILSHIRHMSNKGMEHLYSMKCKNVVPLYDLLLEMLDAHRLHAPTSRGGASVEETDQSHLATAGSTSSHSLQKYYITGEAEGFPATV

With `N[C@@H](Cc1ccc(O)cc1)C(=O)O` [tyrosine], the “size, fertility and total number of viable worms” value with fah-1 RNAi treated worms is on record as “severe decline in all the observed phenotypes”. Moreover, in the series with aro3Δ mutant, the “growth of aro3Δ mutant with increasing tyrosine concentration” value is given as “increase of growth inhibition”.

Take `Nc1ncnc2nc[nH]c12` [adenine, Adenine]: in the series with aah1Δapt1Δ strain (SD medium, adenine up to 40 mg/L), the “cell growth with increasing adenine levels in the medium” value is on record as “decreased cell growth in a dose-dependent manner”.

In the case of `C[C@H]1c2cccc(O)c2C(=O)C2=C(O)[C@]3(O)C(=O)C(C(N)=O)=C(O)[C@@H](N(C)C)[C@@H]3[C@@H](O)[C@@H]21` [doxycycline], in the series with phenylalanine assemblies, the “phenylalanine aggregation and cytotoxicity of the assemblies in vitro” value is “counteract”.

On to `O=C1c2ccccc2C(=O)c2c1ccc(O)c2O` [Alizarin, 1,2-Dihydroxyanthracene-9,10-dione], for which the “formation of adenosine aggregates (aggregation level, Proteostat staining)” value (“formation of adenosine aggregates” below) in series [1] is given as “significantly reduce the aggregation level”; in series [1] (listed as alizarin), “inhibited the formation of these aggregates”.

Turning to `O=C1c2ccc(O)c(O)c2C(=O)c2c(O)ccc(O)c21` [Quinalizarin, 1,2,5,8-Tetrahydroxyanthracene-9,10-dione], the “formation of adenosine aggregates” value in [1] is on record as “significantly reduce the aggregation level”; in [1] (listed as quinalizarin) it was “inhibited the formation of these aggregates”. Further, the “amyloids staining (ThT, end point)” value in the series with adenine fibrils is on record as “significantly reduced the amyloids staining”.

As to `O=C(O)[C@H]1O[C@@H](Oc2cc3oc(-c4ccccc4)cc(=O)c3c(O)c2O)[C@H](O)[C@@H](O)[C@@H]1O` [baicalin, reference compound], in the series on GABAA receptor, the “modulation of the benzodiazepine site and/or a non-benzodiazepine site of the GABAA receptor” value is on record as “positive allosteric modulator”.

For the compound `O=c1cc(-c2ccccc2)oc2cc(O)c(O)c(O)c12` [Baicalein, 5,6,7-Trihydroxy-2-phenyl-chromen-4-one], in the series with aah1Δapt1Δ strain (2 mg/L adenine, baicalein 2.5, 5, 10 μM), the yeast cell growth entry is recorded as “significant effect on yeast cell growth”. In addition, the “total number of worms” value in series [2] (N2 and RB857) is listed as “beneficial effect on both strains”. In addition, in series [2] (RB857 and WT), the “development of worms (reaching adulthood)” value is recorded as “dramatic beneficial effect on both strains”. At estrogen receptor, the “activity at the estrogen receptor” value is recorded as “antagonist”. The “formation of adenosine aggregates” value is recorded as “significantly reduce the aggregation level” in [1] and “inhibited the formation of these aggregates” in series [1] (listed as baicalein). Moreover, the “adenine self-assembly in vitro (ThT fluorescence over time)” value in the series on adenine fibrils (8 mg/ml adenine, baicalein 5, 10, 100, 500 μM) was “dose-dependent inhibition of adenine self-assembly in vitro”. The “amyloids staining (ThT, end point)” value with adenine fibrils is recorded as “significantly reduced the amyloids staining”. Besides, the “inhibition of certain types of lipoxygenases” value in the series on lipoxygenases is given as “inhibit”. Further, in the series on GABAA receptor, the “modulation of the benzodiazepine site and/or a non-benzodiazepine site of the GABAA receptor” value is reported as “positive allosteric modulator”. Further, the “inhibition of CYP2C9” value at CYP2C9 is reported as “inhibitor”.

`N[C@@H](CCS)C(=O)O` [Hcy, homocysteine]: the “growth of CYS4 mutant with Hcy in the growth medium” value with cys4Δ strain is “sensitivity”.
